Results taken from publication PMC10366102, “Dose escalation and expansion cohorts in patients with advanced breast cancer in a Phase I study of the CDK7-inhibitor samuraciclib” (Nature Communications, 2023).
Several values for one entry are separate records, joined by “and”; a condition that tells them apart may be missing. Equal values may be shown once.

What was measured:
[1] = Module 4 food effect study; type: in vivo, human
Method: Carrick Therapeutics CT7001_001, Volume 3, Module 1, Part B-1 (TNBC) […]
in a test using the whole-cell patch-clamp technique (human embryonic kidney [HEK] cells transfected with hERG), and the CT7001 IC50 in the K+ channel was determined to be greater […]
Cardiovascular toxicity potential was also studied in vivo in dogs. Oral administration of 5, 15, and 20 mg/kg CT7001 had no effect on haemodynamic parameters, ECG parameters, or body temperature in the dog, compared with control article (vehicle) administration.
Effects of CT7001 on the central nervous system (CNS [Irwin]) and respiratory systems were […]
CT7001 has low mutagenic potential. At concentrations up to the lower limit of toxicity, it induced no mutations in a five strains Ames test.
2.3.2 Current Clinical Data of CT7001
A first-in-human multi-module Phase I/II clinical study commenced in November 2017 […]
only clinical study conducted to date.
The single- and multiple-ascending dose Phase 1a part of the study (Module 1, Part A) is completed. 33 dosed patients have completed this part of Module 1 (120, 240, 480 mg and a step-down dose level of 360 mg, all taken once daily (OD), and 180 mg given twice a day (BID), all in a fasted state). […]
Module 4 evaluated the effect of food on CT7001 bioavailability in cancer patients. […]

[2] = system: HR+/HER2− advanced breast cancer; assay: Module 2A anti-tumor activity (RECIST V1.1, PFS, ctDNA subgroups); type: in vivo, human
Method: A single-arm, ascending-dose study was conducted in 2 cohorts to explore the recommended dose of samuraciclib and fulvestrant in HR+/HER2− advanced breast cancer patients who had previously received, and become resistant to, a CDK4/6 inhibitor. Female patients with histologically confirmed diagnosis of breast cancer, evidence of metastatic or locally advanced disease, and documented ER+ and/or PgR+ and HER2- tumor status treated with an AI in combination with a CDK4/6i before study entry were eligible. In each cohort the dose of fulvestrant was 500 mg every 28 ± 2 days, with an additional 500 mg dose given 14 ± 2 days after the first dose. Cohort 1 tested samuraciclib 240 mg OD continuous dosing. If the DLT stopping criteria were not met, Cohort 2 commenced enrollment at the Module 1A MTD. Patients underwent regular safety monitoring and 8-week scans reported using RECIST V1.1[32].
Per-protocol ctDNA samples were taken in Module 1B-1 at screening, C1D1, C2D1 and on D1 of alternating cycles from Cycle 3; in Module 2A at screening, C1D1 and at either C2D1 (240 mg) or C2D15 (360 mg) for mutational analysis[24],[33], (Supplementary Information). pPolII in lymphocytes and pPolII and pCDK1/2/3 in core needle tissue samples from patients recruited to the paired biopsy cohort were evaluated for on-target pharmacodynamic analyses. […]
treatment RECIST assessment. […]
number of patients in the particular analysis population. Duration of response (DoR) was defined as the time from documentation of tumor response to disease progression. Progression-free survival (PFS) was […]
cause, whichever occurred first. Efficacy results were summarized descriptively and Kaplan -Meier plots provided where appropriate. […]

rats = system: rats; set-up: method as in ref IB; settings: ref IB; cited from earlier work
[3] = Module 2A N = 25, + fulvestrant
[4] = Module 2A, 25 evaluable, + fulvestrant
[5] = Module 2A, Liver metastases (N = 14)

SMILES: CC(C)c1cnn2c(NCc3ccccc3)cc(NC[C@H]3CCNC[C@@H]3O)nc12 [samuraciclib, Samuraciclib]
- Food effect on exposure or % variability [1]: no food effect was seen
- Patients with PR persisting ≥24 weeks ([2]; Module 2A): 2 patients
- Patients with SD persisting ≥24 weeks ([2]; Module 2A): 7 patients
- Progression-free survival, median (95% confidence interval) ([2]; Module 2A ITT N = 31, + fulvestrant): 3.7 months and 3.7 (1.8, 7.4) months
- Best objective response: Complete response [2, 3]: 0 n (%)
- Best objective response: Partial response [2, 3]: 3 (12.0) n (%)
- Best objective response: Progressive disease [2, 3]: 9 (36.0) n (%)
- Best objective response: Stable disease [2, 3]: 13 (52.0) n (%)
- Clinical benefit rate at 24 weeks [2, 3]: 9 (36.0) n (%)
- Objective response rate [2, 3]: 3 (12.0) n (%)
- Clinical benefit rate at 24 weeks, overall ([2]; Module 2A, 9/25, + fulvestrant): 36.0%
- Best RECIST response PR [2, 4]: 12.0%
- Best RECIST response SD [2, 4]: 52.0%
- Patients achieving PR ([2]; Module 2A, + fulvestrant): 3 patients
- Clinical benefit rate at 24 weeks [2, 5]: 3 (21.4) n (%)
- Progression-free survival, median (95% CI) [2, 5]: 2.8 months and 2.8 (1.8, 7.4) months
- Clinical benefit rate at 24 weeks ([2]; Module 2A, No TP53 mutation (N = 19)): 9 (47.4) n (%)
- Progression-free survival, median (95% CI) ([2]; Module 2A, No TP53 mutation (N = 20)): 7.4 months and 7.4 (3.7, NC) months
- Clinical benefit rate at 24 weeks ([2]; Module 2A, No liver metastases (N = 11)): 6 (54.5) n (%)
- Progression-free survival, median (95% CI) ([2]; Module 2A, No liver metastases (N = 17)): 13.8 months and 13.8 (7.4, NC) months
- Clinical benefit rate at 24 weeks ([2]; Module 2A, TP53 mutation (N = 6)): 0 n (%)
- Progression-free survival, median (95% CI) ([2]; Module 2A, TP53 mutation (N = 7)): 1.8 months and 1.8 (1.7, NC) months
- Clinical benefit rate at 24 weeks ([2]; Module 2A, TP53 mutation group n = 6): 0%
- Clinical benefit rate at 24 weeks ([2]; Module 2A, liver metastases, 3/14): 21.4%
- Clinical benefit rate at 24 weeks ([2]; Module 2A, no detectable TP53 mutation, 9/19): 47.4%
- Clinical benefit rate at 24 weeks ([2]; Module 2A, no liver metastases, 6/11): 54.5%
- Hazard ratio for PFS, no detectable liver metastases ([2]; Module 2A, 95% CI: 0.04–0.59): 0.16
- Hazard ratio for PFS, absence of TP53 mutation ([2]; Module 2A, 95% CI: 0.05-0.45): 0.14
- Effects on CNS (Irwin) and respiratory systems (rats): No significant effects
